# In patent publication US9833497B2, “Human originated EGF domain proteins and use of the same” (CHENGDU SOURCEBIO LIMITED-LIABILITY COMPANY, priority 2013, dated 2017):
# Columns and labels:
# Type in all cases: cell-based
# Serratia marcescens = assay: MIC against Gram-negative bacteria: Serratia marcescens; conditions: 5×10^5 CFU/mL
# In short: (§1)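 Bacteria grown in LB at 37° C with shaking to McFarland 0.5, pelleted and resuspended in fresh LB, then seeded at 5×10^5 CFU/mL per well. Purified recombinant human EGF domain proteins were two-fold serially diluted in triplicate and plates shaken at 37° C, 175 rpm. MIC is the lowest protein concentration with no bacterial growth.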
# E. coli BL21 = assay: MIC against Gram-negative bacteria: E. coli BL21; conditions: 5×10^5 CFU/mL
# In short: as §1
# Proteus vulgaris = assay: MIC against Gram-negative bacteria: Proteus vulgaris; conditions: 5×10^5 CFU/mL
# In short: as §1
# Klebsiella pneumonia = assay: MIC against Gram-negative bacteria: Klebsiella pneumonia; conditions: 5×10^5 CFU/mL
# In short: as §1
# E. coli DH5α = assay: Antibacterial activity: MIC and growth curve against E. coli DH5α in 96-well plate; conditions: minimal inhibitory concentration against E. coli DH5α; 96-well plate, 5×10^5 CFU/mL, 37° C., judged after 8 h
# In short: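 Log-phase bacteria (OD600 ~0.5) resuspended in LB at 5×10^5 CFU/mL, exposed to recombinant protein at 50, 25, 12.5 μg/mL final in triplicate, 37 °C shaking at 175 rpm. OD600 read every 30 min; MIC is lowest concentration showing no growth.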
# Aeromonas hydrophila = assay: MIC against Gram-negative bacteria: Aeromonas hydrophila; conditions: 5×10^5 CFU/mL
# In short: as §1
# Moraxella catarrhalis = assay: MIC against Gram-negative bacteria: Moraxella catarrhalis; conditions: 5×10^5 CFU/mL
# In short: as §1
# Proteus mirabilis = assay: MIC against Gram-negative bacteria: Proteus mirabilis; conditions: 5×10^5 CFU/mL
# In short: as §1
# Citrobacter diversus = assay: MIC against Gram-negative bacteria: Citrobacter diversus; conditions: 5×10^5 CFU/mL
# In short: as §1
# Pseudomonas aeruginosa = assay: MIC against Gram-negative bacteria: Pseudomonas aeruginosa; conditions: 5×10^5 CFU/mL
# In short: as §1
# Enterobacter cloacae = assay: MIC against Gram-negative bacteria: Enterobacter cloacae; conditions: 5×10^5 CFU/mL
# In short: as §1
# [1] = Serratia marcescens, 10 h cultivation at 37° C.
# [2] = E. coli BL21, 10 h cultivation at 37° C.
# [3] = Proteus vulgaris, 10 h cultivation at 37° C.
# [4] = Klebsiella pneumonia, 10 h cultivation at 37° C.
# [5] = Aeromonas hydrophila, 10 h cultivation at 37° C.
# [6] = Moraxella catarrhalis, 10 h cultivation at 37° C.
# [7] = Proteus mirabilis, 10 h cultivation at 37° C.
# [8] = Citrobacter diversus, 10 h cultivation at 37° C.
# [9] = Pseudomonas aeruginosa, 10 h cultivation at 37° C.
# [10] = Enterobacter cloacae, 10 h cultivation at 37° C.
# [11] = S. marcescens, 10 h cultivation at 37° C.
# [12] = P. vulgaris, 10 h cultivation at 37° C.
# [13] = K. pneumonia, 10 h cultivation at 37° C.
# [14] = A. hydrophila, 10 h cultivation at 37° C.
# [15] = M. catarrhalis, 10 h cultivation at 37° C.
# [16] = P. mirabilis, 10 h cultivation at 37° C.
# [17] = C. diversus, 10 h cultivation at 37° C.
# [18] = P. aeruginosa, 10 h cultivation at 37° C.
# [19] = E. cloacae, 10 h cultivation at 37° C.
# [20] = Serratia marcescens, 96-well plate, 37° C., 10 h
# [21] = E. coli BL21, 96-well plate, 37° C., 10 h
# [22] = Proteus vulgaris, 96-well plate, 37° C., 10 h
# [23] = Klebsiella pneumonia, 96-well plate, 37° C., 10 h
# [24] = Aeromonas hydrophila, 96-well plate, 37° C., 10 h
# [25] = Moraxella catarrhalis, 96-well plate, 37° C., 10 h
# [26] = Proteus mirabilis, 96-well plate, 37° C., 10 h
# [27] = Citrobacter diversus, 96-well plate, 37° C., 10 h
# [28] = Pseudomonas aeruginosa, 96-well plate, 37° C., 10 h
# [29] = Enterobacter cloacae, 96-well plate, 37° C., 10 h
# [30] = 10 h cultivation at 37° C., two-fold serial dilution
substance,measurement,setting,value
PRT1366 (ERLACPGACSGHGRCVDGRCLCHEPYVGADCG; listed as Homo sapiens),MIC against S. marcescens,Serratia marcescens; [1],12.5 µg/mL
same,MIC against E. coli BL21,E. coli BL21; [2],12.5 µg/mL
same,MIC against P. vulgaris,Proteus vulgaris; [3],12.5 µg/mL
same,MIC against K. pneumonia,Klebsiella pneumonia; [4],25 µg/mL
same,MIC,E. coli DH5α,12.5 µg/mL
same,MIC against A. hydrophila,Aeromonas hydrophila; [5],12.5 µg/mL
same,MIC against M. catarrhalis,Moraxella catarrhalis; [6],12.5 µg/mL
same,MIC against P. mirabilis,Proteus mirabilis; [7],12.5 µg/mL
same,MIC against C. diversus,Citrobacter diversus; [8],12.5 µg/mL
same,MIC against P. aeruginosa,Pseudomonas aeruginosa; [9],12.5 µg/mL
same,MIC against E. cloacae,Enterobacter cloacae; [10],12.5 µg/mL
PRT1407 (LKTMCPDQCSGHGTYLQESGSCTCDPNWTGPDCS; listed as Homo sapiens),MIC against S. marcescens,Serratia marcescens; [1],25 µg/mL
same,MIC against E. coli BL21,E. coli BL21; [2],25 µg/mL
same,MIC against P. vulgaris,Proteus vulgaris; [3],12.5 µg/mL
same,MIC against K. pneumonia,Klebsiella pneumonia; [4],12.5 µg/mL
same,MIC,E. coli DH5α,50 µg/mL
same,MIC against A. hydrophila,Aeromonas hydrophila; [5],50 µg/mL
same,MIC against M. catarrhalis,Moraxella catarrhalis; [6],50 µg/mL
same,MIC against P. mirabilis,Proteus mirabilis; [7],12.5 µg/mL
same,MIC against C. diversus,Citrobacter diversus; [8],12.5 µg/mL
same,MIC against P. aeruginosa,Pseudomonas aeruginosa; [9],12.5 µg/mL
same,MIC against E. cloacae,Enterobacter cloacae; [10],12.5 µg/mL
PRT198 (CQPKTCNMRGICNNKQHCHCNHEWAPPYC; listed as Homo sapiens),MIC (μg/mL) S. marcescens,Serratia marcescens; [11],50 µg/mL
same,MIC (μg/mL) E. coli BL21,E. coli BL21; [2],12.5 µg/mL
same,MIC (μg/mL) P. vulgaris,Proteus vulgaris; [12],25 µg/mL
same,MIC (μg/mL) K. pneumonia,Klebsiella pneumonia; [13],50 µg/mL
same,MIC,E. coli DH5α,12.5 µg/mL
same,MIC (μg/mL) A. hydrophila,Aeromonas hydrophila; [14],25 µg/mL
same,MIC (μg/mL) M. catarrhalis,Moraxella catarrhalis; [15],25 µg/mL
same,MIC (μg/mL) P. mirabilis,Proteus mirabilis; [16],12.5 µg/mL
same,MIC (μg/mL) C. diversus,Citrobacter diversus; [17],50 µg/mL
same,MIC (μg/mL) P. aeruginosa,Pseudomonas aeruginosa; [18],12.5 µg/mL
same,MIC (μg/mL) E. cloacae,Enterobacter cloacae; [19],12.5 µg/mL
PRT1218 (DINECEREECENGGSCVNVFGSFLCNCTPGYVGQYCG; listed as Homo sapiens),MIC against S. marcescens,Serratia marcescens; [20],25 µg/mL
same,MIC against E. coli BL21,E. coli BL21; [21],25 µg/mL
same,MIC against P. vulgaris,Proteus vulgaris; [22],12.5 µg/mL
same,MIC against K. pneumonia,Klebsiella pneumonia; [23],12.5 µg/mL
same,MIC,E. coli DH5α,12.5 µg/mL
same,MIC against A. hydrophila,Aeromonas hydrophila; [24],12.5 µg/mL
same,MIC against M. catarrhalis,Moraxella catarrhalis; [25],12.5 µg/mL
same,MIC against P. mirabilis,Proteus mirabilis; [26],12.5 µg/mL
same,MIC against C. diversus,Citrobacter diversus; [27],25 µg/mL
same,MIC against P. aeruginosa,Pseudomonas aeruginosa; [28],25 µg/mL
same,MIC against E. cloacae,Enterobacter cloacae; [29],12.5 µg/mL
PRT1223 (LEGACTRSPCQHGGTCMDYWSWQQCHCKEGLTGKYCE; listed as Homo sapiens),MIC against S. marcescens,Serratia marcescens; [20],12.5 µg/mL
same,MIC against E. coli BL21,E. coli BL21; [21],25 µg/mL
same,MIC against P. vulgaris,Proteus vulgaris; [22],50 µg/mL
same,MIC against K. pneumonia,Klebsiella pneumonia; [23],50 µg/mL
same,MIC,E. coli DH5α,50 µg/mL
same,MIC against A. hydrophila,Aeromonas hydrophila; [24],100 µg/mL
same,MIC against M. catarrhalis,Moraxella catarrhalis; [25],50 µg/mL
same,MIC against P. mirabilis,Proteus mirabilis; [26],12.5 µg/mL
same,MIC against C. diversus,Citrobacter diversus; [27],25 µg/mL
same,MIC against P. aeruginosa,Pseudomonas aeruginosa; [28],12.5 µg/mL
same,MIC against E. cloacae,Enterobacter cloacae; [29],25 µg/mL
PRT25 (PGVCRNGGTCTDAPNGGFRCQCPAGGAFEGPRCE; listed as Homo sapiens),MIC (μg/mL) S. marcescens,Serratia marcescens; [20],12.5 µg/mL
same,MIC (μg/mL) E. coli BL21,E. coli BL21; [21],50 µg/mL
same,MIC (μg/mL) P. vulgaris,Proteus vulgaris; [22],25 µg/mL
same,MIC (μg/mL) K. pneumonia,Klebsiella pneumonia; [23],50 µg/mL
same,MIC,E. coli DH5α,50 µg/mL
same,MIC (μg/mL) A. hydrophila,Aeromonas hydrophila; [24],12.5 µg/mL
same,MIC (μg/mL) M. catarrhalis,Moraxella catarrhalis; [25],25 µg/mL
same,MIC (μg/mL) P. mirabilis,Proteus mirabilis; [26],12.5 µg/mL
same,MIC (μg/mL) C. diversus,Citrobacter diversus; [27],100 µg/mL
same,MIC (μg/mL) P. aeruginosa,Pseudomonas aeruginosa; [28],25 µg/mL
same,MIC (μg/mL) E. cloacae,Enterobacter cloacae; [29],25 µg/mL
PRT1184 (NPNDCLPDPCHSRGRCYDLVNDFYCACDDGWKGKTCH; listed as Homo sapiens),MIC S. marcescens,Serratia marcescens; [30],25 µg/mL
same,MIC E. coli BL21,E. coli BL21; [30],25 µg/mL
same,MIC P. vulgaris,Proteus vulgaris; [30],12.5 µg/mL
same,MIC K. pneumonia,Klebsiella pneumonia; [30],25 µg/mL
same,MIC,E. coli DH5α,50 µg/mL
same,MIC A. hydrophila,Aeromonas hydrophila; [30],12.5 µg/mL
same,MIC M. catarrhalis,Moraxella catarrhalis; [30],50 µg/mL
same,MIC P. mirabilis,Proteus mirabilis; [30],25 µg/mL
same,MIC C. diversus,Citrobacter diversus; [30],25 µg/mL
same,MIC P. aeruginosa,Pseudomonas aeruginosa; [30],12.5 µg/mL
same,MIC E. cloacae,Enterobacter cloacae; [30],50 µg/mL
PRT172 (CADGPCFNGGRCSDSPDGGYSCRCPVGYSGFNC; listed as Homo sapiens),MIC (μg/mL) S. marcescens,Serratia marcescens; [11],12.5 µg/mL
same,MIC (μg/mL) E. coli BL21,E. coli BL21; [2],25 µg/mL
same,MIC (μg/mL) P. vulgaris,Proteus vulgaris; [12],12.5 µg/mL
same,MIC (μg/mL) K. pneumonia,Klebsiella pneumonia; [13],25 µg/mL
same,MIC,E. coli DH5α,12.5 µg/mL
same,MIC (μg/mL) A. hydrophila,Aeromonas hydrophila; [14],12.5 µg/mL
same,MIC (μg/mL) M. catarrhalis,Moraxella catarrhalis; [15],12.5 µg/mL
same,MIC (μg/mL) P. mirabilis,Proteus mirabilis; [16],12.5 µg/mL
same,MIC (μg/mL) C. diversus,Citrobacter diversus; [17],12.5 µg/mL
same,MIC (μg/mL) P. aeruginosa,Pseudomonas aeruginosa; [18],50 µg/mL
same,MIC (μg/mL) E. cloacae,Enterobacter cloacae; [19],12.5 µg/mL
PRT1326 (AINACEISNGGCSAKADCKRTTPGRRVCTCKAGYTGDGIVCL; listed as Homo sapiens),MIC against S. marcescens,Serratia marcescens; [20],50 µg/mL
same,MIC against E. coli BL21,E. coli BL21; [21],12.5 µg/mL
same,MIC against P. vulgaris,Proteus vulgaris; [22],25 µg/mL
same,MIC against K. pneumonia,Klebsiella pneumonia; [23],12.5 µg/mL
same,MIC,E. coli DH5α,50 µg/mL
same,MIC against A. hydrophila,Aeromonas hydrophila; [24],12.5 µg/mL
same,MIC against M. catarrhalis,Moraxella catarrhalis; [25],25 µg/mL
same,MIC against P. mirabilis,Proteus mirabilis; [26],12.5 µg/mL
same,MIC against C. diversus,Citrobacter diversus; [27],50 µg/mL
same,MIC against P. aeruginosa,Pseudomonas aeruginosa; [28],50 µg/mL
same,MIC against E. cloacae,Enterobacter cloacae; [29],50 µg/mL
PRT510 (CDCFLPGTDATTCDSETKKCSCSDQTGQCTCKVNVEGIHCDRCRPGKFGLDAKNPLGCSS; listed as Homo sapiens),MIC against S. marcescens,"Serratia marcescens; 96-well plate, 37° C., 10 h",12.5 µg/mL
same,MIC against E. coli BL21,"E. coli BL21; 96-well plate, 37° C., 10 h",25 µg/mL
same,MIC against P. vulgaris,"Proteus vulgaris; 96-well plate, 37° C., 10 h",25 µg/mL
same,MIC against K. pneumonia,"Klebsiella pneumonia; 96-well plate, 37° C., 10 h",25 µg/mL
same,MIC,E. coli DH5α,50 µg/mL
same,MIC against A. hydrophila,"Aeromonas hydrophila; 96-well plate, 37° C., 10 h",25 µg/mL
same,MIC against M. catarrhalis,"Moraxella catarrhalis; 96-well plate, 37° C., 10 h",25 µg/mL
same,MIC against P. mirabilis,"Proteus mirabilis; 96-well plate, 37° C., 10 h",50 µg/mL
same,MIC against C. diversus,"Citrobacter diversus; 96-well plate, 37° C., 10 h",12.5 µg/mL
same,MIC against P. aeruginosa,"Pseudomonas aeruginosa; 96-well plate, 37° C., 10 h",12.5 µg/mL
same,MIC against E. cloacae,"Enterobacter cloacae; 96-well plate, 37° C., 10 h",50 µg/mL
